Experimental data as given in patent publication US20230295235A1, “COMPOUNDS TARGETING ALPHA4-BETA7 INTEGRIN” (ZEALAND PHARMA A/S, priority 2020, published 2023).

Target: T1, (α4β7-negative Th memory cells) (Homo sapiens, UniProt P05556+P13612)
T1 construct: endogenous in cells; host or cells: human whole blood
Assay: Competition assay: inhibition of biotinylated rhVCAM-1-Fc binding to α4β7-negative Th memory cells in whole blood (FACS receptor occupancy)
Type: cell-based
Conditions: single donor, 4 mM MnCl2, α4β7-negative Th memory cells, read-out: IC50, VCAM binding
Protocol: The compound of Example 1 was used in competition assay on CD4+ integrin α4+β7-|o memory T cells.
Receptor occupancy in primary cells was determined by measuring the amount of biotinylated human recombinant MAdCAM-1-Fc or human recombinant VCAM-1-Fc bound to selected cell populations using flow cytometry. Human recombinant MAdCAM-1-Fc or human recombinant VCAM-1-Fc (R&D systems) were biotinylated using commercially available reagents and protocol (Pierce).
Whole blood was collected from human donors in sodium heparin tubes. A volume of 100 µL of blood was incubated with the compound of Example 1 and 4 mM MnCl2 for 1 hour at room temperature. Cells were washed twice with 1 mL of 1X Dulbecco’s phosphate buffered saline (DPBS) calcium magnesium free (CMF) (ThermoFisher Scientific) and resuspended in 100 µL of DPBS CMF. […]
Fluorescence-activated cell sorting (FACS) data was acquired by electronic gating on the basis of forward versus side scatter. […] Cell population were determined using the following markers: CD45+, CD3+, CD4+,CD45RO+, CD49d+, integrin β7, biotinylated ligands.
Compound receptor occupancy was defined as the decrease in the number of integrin β7+ or integrin β7-lo cells binding biotinylated rhMAdCAM-1 or rhVCAM-1, respectively. Receptor occupancy was calculated with the following equation: […]

T1 sequence (P13612 34-1032): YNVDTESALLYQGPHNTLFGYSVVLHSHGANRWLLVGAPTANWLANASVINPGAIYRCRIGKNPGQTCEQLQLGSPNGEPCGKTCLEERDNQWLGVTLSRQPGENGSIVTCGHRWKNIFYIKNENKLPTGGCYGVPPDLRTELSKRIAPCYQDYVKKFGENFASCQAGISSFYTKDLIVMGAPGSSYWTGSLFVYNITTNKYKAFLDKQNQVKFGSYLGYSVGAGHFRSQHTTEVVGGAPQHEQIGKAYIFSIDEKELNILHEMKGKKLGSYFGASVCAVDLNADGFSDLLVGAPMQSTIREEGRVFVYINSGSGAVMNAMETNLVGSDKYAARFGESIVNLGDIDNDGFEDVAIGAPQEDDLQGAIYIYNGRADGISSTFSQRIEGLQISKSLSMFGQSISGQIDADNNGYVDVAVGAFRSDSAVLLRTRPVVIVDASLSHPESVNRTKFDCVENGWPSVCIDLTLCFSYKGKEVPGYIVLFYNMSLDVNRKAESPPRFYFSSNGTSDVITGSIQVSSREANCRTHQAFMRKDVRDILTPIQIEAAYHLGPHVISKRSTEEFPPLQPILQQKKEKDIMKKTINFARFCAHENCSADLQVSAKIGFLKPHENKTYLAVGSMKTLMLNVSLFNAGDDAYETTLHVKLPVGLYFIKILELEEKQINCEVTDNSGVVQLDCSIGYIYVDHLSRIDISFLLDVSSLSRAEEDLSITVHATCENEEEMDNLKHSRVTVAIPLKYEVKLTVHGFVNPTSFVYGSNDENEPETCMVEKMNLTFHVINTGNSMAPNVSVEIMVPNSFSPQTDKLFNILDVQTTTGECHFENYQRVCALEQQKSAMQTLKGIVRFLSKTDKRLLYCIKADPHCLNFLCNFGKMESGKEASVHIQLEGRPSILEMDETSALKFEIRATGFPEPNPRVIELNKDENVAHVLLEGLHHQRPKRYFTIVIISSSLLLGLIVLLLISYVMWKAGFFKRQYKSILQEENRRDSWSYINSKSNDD
T1 sequence (P05556 21-798): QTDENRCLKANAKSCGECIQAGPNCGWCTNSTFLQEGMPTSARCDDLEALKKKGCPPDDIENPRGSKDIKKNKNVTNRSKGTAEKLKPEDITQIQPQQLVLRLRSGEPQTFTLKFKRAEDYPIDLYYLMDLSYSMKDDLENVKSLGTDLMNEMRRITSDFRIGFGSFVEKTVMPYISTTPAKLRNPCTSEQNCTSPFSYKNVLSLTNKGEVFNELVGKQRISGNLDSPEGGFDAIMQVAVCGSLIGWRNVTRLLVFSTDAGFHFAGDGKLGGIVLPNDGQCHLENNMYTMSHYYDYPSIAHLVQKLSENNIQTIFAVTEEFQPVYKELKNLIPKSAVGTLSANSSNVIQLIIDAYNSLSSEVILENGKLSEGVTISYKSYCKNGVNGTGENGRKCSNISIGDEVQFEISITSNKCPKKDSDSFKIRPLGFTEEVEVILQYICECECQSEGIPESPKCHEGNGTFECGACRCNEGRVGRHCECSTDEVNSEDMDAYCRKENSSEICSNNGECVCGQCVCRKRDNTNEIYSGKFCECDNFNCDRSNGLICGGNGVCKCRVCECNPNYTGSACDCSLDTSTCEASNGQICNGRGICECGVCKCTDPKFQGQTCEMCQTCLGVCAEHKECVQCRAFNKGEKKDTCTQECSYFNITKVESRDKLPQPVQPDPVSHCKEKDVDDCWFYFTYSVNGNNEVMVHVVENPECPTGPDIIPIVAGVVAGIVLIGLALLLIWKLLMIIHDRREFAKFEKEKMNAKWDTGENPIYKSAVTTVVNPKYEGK

For `CC(C)C[C@@H]1NC(=O)c2ccc(-c3ccc(N4CCN(C(=O)c5ccccc5-c5ccccc5C(=O)N5CCN(c6ccc(-c7ccc8cc7CNC(=O)[C@@H]7CCCN7[C@H](C(=O)NC(C)(C)C)[C@H](C)NC(=O)[C@H]([C@@H](C)O)NC(=O)[C@H](CC(=O)O)NC(=O)[C@H](CC(C)C)NC8=O)cc6)CC5)CC4)cc3)c(c2)CNC(=O)[C@@H]2CCCN2[C@H](C(=O)NC(C)(C)C)[C@H](C)NC(=O)[C@H]([C@@H](C)O)NC(=O)[C@H](CC(=O)O)NC1=O` [Example 1, 2,2′-((S,S,S,S,S,S,1^2,8S,11S,14S,17S,18S)-((([1,1′-Biphenyl]-2,2′-Dicarbonyl)-Bis(Piperazine-4,1-Diyl))Bis(4,1-Phenylene))Bis(18-(Tert-Butylcarbamoyl)-14-((R)-1-Hydroxyethyl)-8-Isobutyl-17-Methyl-2,6,9,12,15-Pentaoxo-3,7,10,13,16-Pentaaza-1(2,1)-Pyrrolidina-5(1,3)-Benzenacyclooctadecaphane-5^6,11-Diyl))-Diacetic Acid], which IC50 is on record?
The IC50 was ~0.6 µM.
